Patent EP0598515A1, “Method for herbicidal activity-enhancing, activity-enhanced herbicidal composition and activity-enhancing composition” (ISHIHARA SANGYO KAISHA LTD., priority 1992, dated 1994)
Values joined by “and” are separate entries in the source; they are usually repeats but may differ in a detail not shown here. Equal values may be shown once.

Test system: Crabgrass (Digitaria sanginalis L.)
Assay: Test Example 5: pot test with kinds of vegetable oil
Type: in vivo
Conditions: Example 7 water dispersible granules, 0.2% by volume Frigate + 0.4% by volume vegetable oil (90 parts oil, 10 parts Geronol VO/278), 23 days after treatment, duplicate
Description: Crabgrass (Digitaria sanginalis L.) seeds were sown in 1/1,000,000-hectare pots filled with upland soil and arranged in a duplicate system. When the crabgrass plants grew to a 3.5- to 4.0-leaf stage, water dispersible granules obtained in Example 7 described hereinbefore was diluted with 200 liters/hectare of water containing 0.2% by volume of Frigate and 0.4% by volume of a vegetable oil which was previously prepared by mixing with a predetermined amount of Geronol VO/278 (trade name) and was applied foliarly to the plants with a small spray gun.
Twenty three days after treatment, the growth inhibition of the plants was evaluated with visual observation in the same manner as in Test Example 1 and are shown in Table 5.
In the test, a vegetable oil, a fatty acid originated therefrom and an alkylester of the fatty acid were used as the vegetable oil and which are each of mixture of 10 parts by weight of Geronol VO/278 and 90 parts by weight of the following vegetable oil, fatty acids originated from vegetable oils and alkylesters of fatty acids. • (a) corn oil • (b) fatty acid originated from corn oil (prepared by hydrolysis of corn oil) • (c) methylester of (b) • (d) methylester of fatty acid originated from cottonseed oil • (e) methylester of fatty acid originated from rapeseed oil • (f) methyl oleate (trade name: ADJ-100) • (g) butyl oleate (trial product No. 93091; produced by Takemoto Oils and Fats) TABLE 5

Row | Structure (SMILES) | Growth Inhibition (%) of Crabgrass (Compound A 2.5 g/ha) | Growth Inhibition (%) of Crabgrass (Compound A 5 g/ha)
1 | CCCCCCCC/C=C\CCCCCCCC(=O)OC [f, methyl oleate] | 60% | 90%
2 | CCCCCCCC/C=C\CCCCCCCC(=O)OCCCC [g, butyl oleate] | 70% | 95% and 80%
